Test results from patent US8221658B2, “Mixed salts of diorganylphosphinic acids and carboxylic acids” (Clariant Finance (BVI) Limited, priority 2007, dated 2012).

Experiments:
[1] = Decomposition in differential thermal analysis (2% weight loss, atmosphere: air); type: physicochemical
Experimental: A mixture of 5 g of terephthalic acid and 3.9 g of aluminum trisdiethylphosphinate is reacted for 0.5 h at 350° C., as in example 1.

[2] = under nitrogen; cited from earlier work

Row | Compound | Decomposition in differential thermal analysis (2% weight loss) [1] | Evaporation temperature [2]
1 | CCP(=O)([O-])CC.O=C([O-])c1ccc(C(=O)[O-])cc1.[Al+3] [Example 4, aluminum mono(diethylphosphinate)terephthalate] | 425 °C | –
2 | CC(C)CP(=O)([O-])CC(C)C.CC(C)CP(=O)([O-])CC(C)C.CC(C)CP(=O)([O-])CC(C)C.[Al+3] [aluminum salt of diisobutylphosphinic acid] | – | 300 to 400 °C
3 | aluminum terephthalate | 298 °C | –
4 | aluminum trisdiethylphosphinate | 355 °C | 400 to 500 °C
